According to patent publication US11311513B2, “Methods, agents, and compositions for the treatment of acute myeloid leukemia” (UNIVERSITY OF CINCINNATI, priority 2017, dated 2022):
pIC50: −log10 of the molar value.

What was measured:
[1] = Acute and long-term toxicity profiling in healthy mice; type: in vivo, C57BL/6 mice; conditions: for acute (24 hrs) or long-term (200 days) toxicity: 2.5 mg/kg i.p. once per day 10 days, body, spleen, liver weights, WBC, PB and BM lineages; for WBC: 2.5 mg/kg i.p. 10 days, normal range 1.8-10.7; for BA / EO: normal range 0.0-0.2; for MO: normal range 0.0-0.4; for NE: normal range 0.1-2.4; for LY: normal range 0.9-9.3; for RBC: normal range 6.36-9.42; for PLT: normal range 592-2972
Protocol: FIG. 15. […] 24 hrs after the last administration, body weights (a), weights of spleens (b), livers (c), total PB WBC counts (d), BM Mac1^+Gr1^+ (e), Mac1^+Gr1^− (f), Mac1^−Gr1^+ (g), and c-Kit^+ (h) populations were analyzed.
FIG. 16. […] 200 days after the last administration, body weights (a), weights of spleens (b), livers (c), total PB WBC counts (d), BM Mac1^+Gr1^+ (e), Mac1^+Gr1^− (f), Mac1^−Gr1^+ (g), and c-Kit^+ (h) populations were analyzed.

NB4 cells = experiment: MTS cell viability, TET1-low control cell line; type: cell-based; conditions: up to 500 nM, 48 hrs
Protocol: (§1) FIG. 1. […] Cell viability was analyzed by MTS 48 hours post-treatment. […] TET1 expression levels were detected by qPCR 48 hrs post-treatment. […] TET1 expression levels (e) and cell viability (f) were detected 24 hrs post-treatment. *, P<0.05, two-tailed t-test. MM6, MONOMAC-6. Error bar indicates SD of triplicate experiments.
MONOMAC-6, THP-1, KOCL-48, KASUMI-1, ML-2 and NB4 cells were purchased from ATCC (Manassas, Va.), and cultured as described previously (Jiang, X., et al. Blockade of miR-150 Maturation by MLL-Fusion/MYC/LIN-28 Is Required for MLL-Associated Leukemia. Cancer Cell 22, 524-535 (2012); Li, Z., et al. miR-196b directly targets both HOXA9/MEIS1 oncogenes and FAS tumour suppressor in MLL-rearranged leukaemia. (Li, Z., et al., miR-196b directly targets both HOXA9/MEISV oncogenes and FAS tumour suppressor in MLL-rearranged leukaemia, Nat Commun 2:688 (2012)). All cell lines were tested for mycoplasma contamination yearly using a PCR Mycoplasma Test Kit (PromoKine) and were proven to be mycoplasma negative. All cell lines were authenticated through STR profiling yearly. […]

global 5hmC level = experiment: Global 5hmC level (5hmC labeling and dot-blotting); type: cell-based; conditions: for global 5hmC levels: MONOMAC-6 cells
Protocol: as §1
The 5-hydroxymethylcytosine (5-hmC) labeling reactions and 5hmC dot blotting were performed as described previously (Huang, H., et al. TET1 plays an essential oncogenic role in MLL-rearranged leukemia. Proc Natl Acad Sci USA 110, 11994-11999 (2013)). Briefly, 3 jig sonicated genomic DNA (100-500 bp) fragments were incubated in solution containing 50 mM Hepes buffer (pH 7.9), 25 mM MgCl2, 100 jiM UDP-6-N3-Glc, and 1 jiM beta-glucosyltransferase (f3-GT) for 1 hr at 37° C. The CLICK was performed with addition of 150 jiM dibenzocyclooctyne modified biotin into the purified DNA solution, and the reaction mixture was incubated for 2 hrs at 37° C. Six hundred nanograms of labeled genomic DNA samples were spotted on an Amersham Hybond-N+ membrane (GE Healthcare, Little Chalfont, UK). DNA was fixed to the membrane by Stratagene UV Stratalinker 2400 (auto-crosslink). The membrane was then blocked with 5% BSA and incubated with Avidin-HRP (1:40,000) (Bio-Rad, Hercules, Calif.), and then visualized by enhanced chemiluminescence.

FLT3-ITD/NPM1^mut AML = experiment: FLT3-ITD/NPM1mut AML secondary BMT mouse model; type: in vivo, mice; conditions: 2.5 mg/kg i.p. once per day for 10 days; for median survival: control 21 days
Protocol: FIG. 4. […] (a) Structures of NSC-370284 and UC-514321. […] Cells were treated with drugs at indicated doses. Cell viability was detected by MTS 48 hrs post-treatment. Error bar indicates SD of triplicate experiments. […] Secondary BMT recipient mice were transplanted with primary leukemic BM cells with MLL-AF9 (f) or AML-ETO9a (g). […] Kaplan-Meier curves are shown. The P values were determined by log-rank test. […] Secondary BMT recipient mice were transplanted with primary leukemic BM cells with MLL-AF10 or FLT3-ITD/NPM1^mut. […] Kaplan-Meier curves are shown. The P values were determined by log-rank test. (j) Wright-Giemsa staining of mouse PB and BM, or H&E staining of mouse spleen and liver of MLL-AF9 AML secondary BMT recipients with or without drug treatment.
Secondary mouse BMT was carried out as described previously. […] For the “5+3” treatment, AraC (Cytarabine, Bedford Laboratories) and DNR (Daunorubicin, Sigma-Aldrich) were reconstituted with PBS, filtered, and stored in aliquots at −20° C. The “5+3” therapy regimen consists of five consecutive daily doses of 50 mg/kg AraC along with 3 mg/kg DNR daily during the first three days of treatment. Drugs were delivered by tail vein and intraperitoneal injection. Weights were taken daily during treatment and doses were recalculated to ensure the mice received a consistent dose of 50 mg/kg AraC and 3 mg/kg DNR every treatment.

MONOMAC-6 cells = experiment: MTS cell viability, MONOMAC-6; type: cell-based; conditions: 48 hrs
Protocol: In order to identify chemical compounds that may target TET1 signaling, the drug-sensitivity/gene expression database of a total of 20,602 chemical compounds in the NCI-60 collection of cancer cell samples was searched.
All cell lines were authenticated through STR profiling yearly.
These experiments were conducted as described previously (Jiang, X., et al., Blockade of miR-150 Maturation by MLL-Fusion/MYC/LIN-28 Is Required for MLL-Associated Leukemia, Cancer Cell 22:524-35 (2012); Li, Z., et al., miR-196b directly targets both HOXA9/MEIS1 oncogenes and FAS tumour suppressor in MLL-rearranged leukaemia, Nat Commun 2:688 (2012)) with ApoLive-Glo Multiplex Assay Kit, or CellTiter 96 AQueous Non-Radioactive Cell Proliferation Assay Kit (Promega, Madison, Wis.).

[2] = acute, 24 hrs post last administration
[3] = long-term, 200 days post last administration

SMILES	acute (24 hrs) or long-term (200 days) toxicity [1]	WBC [1, 2] [K/μl]	BA [1, 2] [K/μl]	MO [1, 2] [K/μl]	NE [1, 2] [K/μl]	LY [1, 2] [K/μl]	RBC [1, 2] [M/μl]	PLT [1, 2] [K/μl]	WBC [1, 3] [K/μl]	BA [1, 3] [K/μl]	EO [1, 3] [K/μl]	MO [1, 3] [K/μl]	NE [1, 3] [K/μl]	LY [1, 3] [K/μl]	RBC [1, 3] [M/μl]	PLT [1, 3] [K/μl]	inhibition of viability of NB4 cells (NB4 cells)	global 5hmC levels (global 5hmC level)	median survival (FLT3-ITD/NPM1^mut AML) [days]	further results
COc1cc(C(c2cc3c(cc2O)OCO3)N2CCCC2)cc(OC)c1OC (stereo not shown) [NSC-370284, 6-(1-Pyrrolidinyl(3,4,5-trimethoxyphenyl)methyl)-1,3-benzodioxol-5-ol]	no evidence of either acute or long-term toxicity	8.35 ± 2.34	0.05 ± 0.05	0.22 ± 0.14	1.67 ± 0.21	6.74 ± 2.55	8.55 ± 3.34	460.21 ± 42.42	10.34 ± 2.19	0.03 ± 0.02	0.11 ± 0.01	0.31 ± 0.03	2.26 ± 0.54	7.68 ± 1.55	7.38 ± 1.7	929.62 ± 154.61	no significant inhibition	significantly reduced	34	global 5hmC level (global 5hmC level; 300 nM, THP-1 and MONOMAC-6 cells): significantly repressed; pIC50 (MONOMAC-6 cells; Homo sapiens, MONO-MAC-6, MONOMAC-6 cells, unit inferred, read-out: IC50 MMC6): 9.41
CC(C)(C)c1cc(C(c2cc3c(cc2O)OCO3)N2CCOCC2)cc(C(C)(C)C)c1O (stereo not shown) [UC-514321, 6-{[4-Hydroxy-3,5-bis(2-methyl-2-propanyl)phenyl](4-morpholinyl)methyl}-1,3-benzodioxol-5-ol]	no evidence of either acute or long-term toxicity	8.64 ± 3.68	0.07 ± 0.05	0.27 ± 0.1	1.94 ± 0.56	6.54 ± 2.7	9.54 ± 0.74	559.43 ± 116.9	11.89 ± 1.64	0.07 ± 0.04	0.1 ± 0.01	0.25 ± 0.05	2.11 ± 0.44	8.55 ± 1.18	7.07 ± 0.42	681.56 ± 402.64	no inhibitory effect	significantly reduced	> 50	EO [1, 2]: 0.14 ± 0.12 K/μl; recipients that developed full-blown AML within 50 days (FLT3-ITD/NPM1^mut AML): none; MONOMAC-6 cell viability among 30 analogues (MONOMAC-6 cells; MTS): most significantly repressed
